Data reported in US6743753B2, “Herbicidal compositions” (priority 1998, dated 2004).

Experiments:
Format in all cases: in vivo
Conditions in all cases: 28 DAT
[1] = tested on: Leptochloa chinensis (LEFCH); experiment: Post-emergence treatment of LEFCH, visual assessment of weed control
Text: (§1) Seed of various weed species were sown and grown up to a 2-4 leaves stage. The said weeds are Echinochloa crus-galli (hereafter ECGCH), Leptochloa chinensis (hereafter LEFCH), Monochoria vaginalis (hereafter MOOVA) and Cyperus difformis (hereafter CYPDI).
(§2) Mixtures of pyribenzoxim and a partner herbicide were applied post emergence in a water diluted form using a laboratory sprayer. A visual assessment was made 28 days after treatment (DAT).
(§3) In the tables that follow ‘dose’ represents the dose rate in grammes per hectare of the active ingredient used; the figures for the weed control are percentage reductions in growth when compared with untreated controls; and CpdA represents pyribenzoxim.

[2] = tested on: Echinochloa crus-galli (ECGCH); experiment: Post-emergence treatment of ECGCH, visual assessment of weed control
Text: as §1, §2, §3

[3] = tested on: Cyperus difformis (CYPDI); experiment: Post-emergence treatment of CYPDI, visual assessment of weed control
Text: as §1, §2, §3

[4] = tested on: Monochoria vaginalis (MOOVA); experiment: Post-emergence treatment of MOOVA, visual assessment of weed control
Text: as §1, §2, §3

COc1cc(OC)nc(NC(=O)NS(=O)(=O)Cc2ccccc2C(=O)O)n1 [bensulfuron, α-(4,6-dimethoxypyrimidin-2-ylcarbamoylsulfamoyl)-o-toluic acid]
weed control, percentage reduction in growth vs untreated controls ([1]; Table 4, LEFCH (2 leaf), bensulfuron 25 g/ha alone): 0%
weed control, percentage reduction in growth vs untreated controls ([1]; Table 4, LEFCH (2 leaf), bensulfuron 50 g/ha alone): 0%
weed control, percentage reduction in growth vs untreated controls ([2]; bensulfuron 6.5 g/ha alone): 30%
weed control, percentage reduction in growth vs untreated controls ([2]; bensulfuron 13 g/ha alone): 50%
weed control, percentage reduction in growth vs untreated controls ([2]; bensulfuron 25 g/ha alone): 70%

CC(C)N1C(=O)c2ccccc2NS1(=O)=O [bentazone, 3-isopropyl-1H-2,1,3-benzothiadiazin-4(3H)-one 2,2-dioxide]
weed control, percentage reduction in growth vs untreated controls ([1]; Table 3, bentazone 375 g/ha alone): 0%
weed control, percentage reduction in growth vs untreated controls ([1]; Table 3, bentazone 750 g/ha alone): 20%
weed control, percentage reduction in growth vs untreated controls ([1]; Table 3, bentazone 1500 g/ha alone): 20%
weed control, percentage reduction in growth vs untreated controls ([3]; Table 11, bentazone 375 g/ha alone): 80%
weed control, percentage reduction in growth vs untreated controls ([3]; Table 11, bentazone 750 g/ha alone): 80%

COc1cc(OC)nc(Oc2cccc(Oc3nc(OC)cc(OC)n3)c2C(=O)ON=C(c2ccccc2)c2ccccc2)n1 [CpdA, benzophenone O-{2,6-bis[(4,6-dimethoxypyrimidyl)oxy]benzoyl}oxime]
weed control, percentage reduction in growth vs untreated controls ([1]; Table 2, CpdA 15 g/ha alone): 0%
weed control, percentage reduction in growth vs untreated controls ([1]; Table 2, CpdA 30 g/ha alone): 30%
weed control, percentage reduction in growth vs untreated controls ([1]; Table 2, CpdA 60 g/ha alone): 30%
weed control, percentage reduction in growth vs untreated controls ([1]; Table 3, CpdA 15 g/ha alone): 0%
weed control, percentage reduction in growth vs untreated controls ([1]; Table 3, CpdA 30 g/ha alone): 30%
weed control, percentage reduction in growth vs untreated controls ([1]; Table 3, CpdA 60 g/ha alone): 30%
weed control, percentage reduction in growth vs untreated controls ([1]; Table 4, LEFCH (2 leaf), CpdA 15 g/ha alone): 50%
weed control, percentage reduction in growth vs untreated controls ([1]; Table 5, LEFCH (2 leaf), CpdA 7.5 g/ha alone): 30%
weed control, percentage reduction in growth vs untreated controls ([1]; Table 5, LEFCH (2 leaf), CpdA 15 g/ha alone): 50%
weed control, percentage reduction in growth vs untreated controls ([1]; Table 6, LEFCH (2 leaf), CpdA 7.5 g/ha alone): 30%
weed control, percentage reduction in growth vs untreated controls ([1]; Table 6, LEFCH (2 leaf), CpdA 15 g/ha alone): 50%
weed control, percentage reduction in growth vs untreated controls ([3]; Table 10, CpdA 15 g/ha alone): 60%
weed control, percentage reduction in growth vs untreated controls ([3]; Table 11, CpdA 7.5 g/ha alone): 0%
weed control, percentage reduction in growth vs untreated controls ([4]; Table 7, MOOVA (2 leaf), CpdA 15 g/ha alone): 0%
weed control, percentage reduction in growth vs untreated controls ([4]; Table 7, MOOVA (2 leaf), CpdA 30 g/ha alone): 70%
weed control, percentage reduction in growth vs untreated controls ([4]; Table 8, MOOVA (2 leaf), CpdA 15 g/ha alone): 100%
weed control, percentage reduction in growth vs untreated controls ([4]; Table 8, MOOVA (2 leaf), CpdA 30 g/ha alone): 100%
weed control, percentage reduction in growth vs untreated controls ([4]; Table 9, MOOVA (2 leaf), CpdA 7.5 g/ha alone): 100%
weed control, percentage reduction in growth vs untreated controls ([2]; CpdA 7.5 g/ha alone): 20%

Cc1ccc(C(=O)COc2c(C(=O)c3ccc(Cl)c(C)c3Cl)c(C)nn2C)cc1 [benzofenap, 2-[4-(2,4-dichloro-m-toluoyl)-1,3-dimethylpyrazol-5-yloxy]-4-′methylacetophenone]
weed control, percentage reduction in growth vs untreated controls ([1]; Table 6, LEFCH (2 leaf), benzofenap 600 g/ha alone): 10%
weed control, percentage reduction in growth vs untreated controls ([1]; Table 6, LEFCH (2 leaf), benzofenap 1200 g/ha alone): 20%
weed control, percentage reduction in growth vs untreated controls ([4]; Table 9, MOOVA (2 leaf), benzofenap 150 g/ha alone): 0%
weed control, percentage reduction in growth vs untreated controls ([4]; Table 9, MOOVA (2 leaf), benzofenap 300 g/ha alone): 0%

CC(Oc1ccc(Oc2nc3ccc(Cl)cc3o2)cc1)C(=O)O (racemic) [fenoxaprop, [(±)-2-[4-(6-chloro-1,3-benzoxazol-2-yloxy)phenoxy]propionic acid]
weed control, percentage reduction in growth vs untreated controls ([1]; Table 2, fenoxaprop 15 g/ha alone): 0%
weed control, percentage reduction in growth vs untreated controls ([1]; Table 2, fenoxaprop 30 g/ha alone): 0%
weed control, percentage reduction in growth vs untreated controls ([1]; Table 2, fenoxaprop 60 g/ha alone): 0%
weed control, percentage reduction in growth vs untreated controls ([3]; Table 10, fenoxaprop 30 g/ha alone): 0%
weed control, percentage reduction in growth vs untreated controls ([3]; Table 10, fenoxaprop 60 g/ha alone): 0%
weed control, percentage reduction in growth vs untreated controls ([4]; Table 7, MOOVA (2 leaf), fenoxaprop 15 g/ha alone): 0%
weed control, percentage reduction in growth vs untreated controls ([4]; Table 7, MOOVA (2 leaf), fenoxaprop 30 g/ha alone): 0%
weed control, percentage reduction in growth vs untreated controls ([4]; Table 7, MOOVA (2 leaf), fenoxaprop 60 g/ha alone): 30%
weed control, percentage reduction in growth vs untreated controls ([4]; Table 7, MOOVA (2 leaf), fenoxaprop 120 g/ha alone): 70%
